Measured values: ChEMBL document CHEMBL3885881, “DrugMatrix”

Species: Rattus norvegicus
Test: DrugMatrix - Regimen: Daily Repeat
Assay type: toxicity, organism-based, Sprague-Dawley
Parameters: regimen Daily Repeat, gender Male, age 6-8 weeks
Settings: in vivo, po, route oral GAVAGE, vehicle .5 % CMC; for ABSOLUTE BASOPHIL / ABSOLUTE EOSINOPHIL / ABSOLUTE LYMPHOCYTE / ABSOLUTE MONOCYTE / ABSOLUTE SEGMENTED NEUTROPHIL / BASOPHIL / EOSINOPHIL / ERYTHROCYTE COUNT / HEMATOCRIT / HEMOGLOBIN / LEUKOCYTE COUNT / LYMPHOCYTE / MEAN CORPUSCULAR HEMOGLOBIN / MEAN CORPUSCULAR HEMOGLOBIN CONCENTRATION / MEAN CORPUSCULAR VOLUME / MONOCYTE / NEUTROPHIL / NUCLEATED RED BLOOD CELLS / PLATELET COUNT: tissue Blood; for ALANINE AMINOTRANSFERASE / ALBUMIN / ALKALINE PHOSPHATASE / ASPARTATE AMINOTRANSFERASE / BLOOD UREA NITROGEN / CARBON DIOXIDE / CHLORIDE / CHOLESTEROL / CREATINE PHOSPHOKINASE / CREATININE / GLUCOSE / LACTATE DEHYDROGENASE / LIPASE / PHOSPHORUS / POTASSIUM / SODIUM / TOTAL BILIRUBIN / TOTAL PROTEIN / URIC ACID: tissue Plasma
[1] = 0 mg/kg, 72 h, dose level Control, time 3 day
[2] = 0 mg/kg, 120 h, dose level Control, time 5 day
[3] = 30 mg/kg, 72 h, dose level Low, time 3 day
[4] = 30 mg/kg, 120 h, dose level Low, time 5 day

COc1ccc(/C=C/C(=O)Nc2ccccc2C(=O)O)cc1OC
ABSOLUTE BASOPHIL [1]: 0 CELLS/uL | ABSOLUTE EOSINOPHIL [1]: 222.83 CELLS/uL | ABSOLUTE LYMPHOCYTE [1]: 14453 CELLS/uL | ABSOLUTE MONOCYTE [1]: 0 CELLS/uL | ABSOLUTE SEGMENTED NEUTROPHIL [1]: 1490.83 CELLS/uL | BASOPHIL [1]: 0% | EOSINOPHIL [1]: 1.33% | ERYTHROCYTE COUNT [1]: 5.76 x10E6/uL | HEMATOCRIT [1]: 36.52% | HEMOGLOBIN [1]: 13.45 G/DL | LEUKOCYTE COUNT [1]: 16.17 x10E3/uL | LYMPHOCYTE [1]: 89.33% | MEAN CORPUSCULAR HEMOGLOBIN [1]: 23.37 pg | MEAN CORPUSCULAR HEMOGLOBIN CONCENTRATION [1]: 36.85 G/DL | MEAN CORPUSCULAR VOLUME [1]: 63.47 fL | MONOCYTE [1]: 0% | NEUTROPHIL [1]: 9.33% | NUCLEATED RED BLOOD CELLS [1]: 0 /100WBC | PLATELET COUNT [1]: 1239.5 x10E3/uL | ALANINE AMINOTRANSFERASE [1]: 43.83 u/L | ALBUMIN [1]: 4.27 G/DL | ALKALINE PHOSPHATASE [1]: 398.83 u/L | ASPARTATE AMINOTRANSFERASE [1]: 81.17 u/L | BLOOD UREA NITROGEN [1]: 17.67 mg/dL | CARBON DIOXIDE [1]: 27.5 mmol/L | CHLORIDE [1]: 99.17 MEQ/L | CHOLESTEROL [1]: 74 mg/dL | CREATINE PHOSPHOKINASE [1]: 331.5 u/L | CREATININE [1]: 0.2 mg/dL | GLUCOSE [1]: 171.33 mg/dL | LACTATE DEHYDROGENASE [1]: 241.67 u/L | LIPASE [1]: 9.5 u/L | PHOSPHORUS [1]: 12.25 mg/dL | POTASSIUM [1]: 6.33 MEQ/L | SODIUM [1]: 141.28 MEQ/L | TOTAL BILIRUBIN [1]: 0.15 mg/dL | TOTAL PROTEIN [1]: 5.98 G/DL | URIC ACID [1]: 1.63 mg/dL | ABSOLUTE BASOPHIL [2]: 0 CELLS/uL | ABSOLUTE EOSINOPHIL [2]: 148.67 CELLS/uL | ABSOLUTE LYMPHOCYTE [2]: 16020.5 CELLS/uL | ABSOLUTE MONOCYTE [2]: 29.17 CELLS/uL | ABSOLUTE SEGMENTED NEUTROPHIL [2]: 1468.33 CELLS/uL | BASOPHIL [2]: 0% | EOSINOPHIL [2]: 1% | ERYTHROCYTE COUNT [2]: 5.78 x10E6/uL | HEMATOCRIT [2]: 35.77% | HEMOGLOBIN [2]: 13.4 G/DL | LEUKOCYTE COUNT [2]: 17.67 x10E3/uL | LYMPHOCYTE [2]: 90.5% | MEAN CORPUSCULAR HEMOGLOBIN [2]: 23.22 pg | MEAN CORPUSCULAR HEMOGLOBIN CONCENTRATION [2]: 37.47 G/DL | MEAN CORPUSCULAR VOLUME [2]: 61.92 fL | MONOCYTE [2]: 0.17% | NEUTROPHIL [2]: 8.33% | NUCLEATED RED BLOOD CELLS [2]: 0.17 /100WBC | PLATELET COUNT [2]: 1255.5 x10E3/uL | ALANINE AMINOTRANSFERASE [2]: 46.5 u/L | ALBUMIN [2]: 4.38 G/DL | ALKALINE PHOSPHATASE [2]: 336 u/L | ASPARTATE AMINOTRANSFERASE [2]: 76.5 u/L | BLOOD UREA NITROGEN [2]: 20 mg/dL | CARBON DIOXIDE [2]: 27.5 mmol/L | CHLORIDE [2]: 101 MEQ/L | CHOLESTEROL [2]: 71.33 mg/dL | CREATINE PHOSPHOKINASE [2]: 231.83 u/L | CREATININE [2]: 0.37 mg/dL | GLUCOSE [2]: 168.83 mg/dL | LACTATE DEHYDROGENASE [2]: 174 u/L | LIPASE [2]: 8.67 u/L | PHOSPHORUS [2]: 11.48 mg/dL | POTASSIUM [2]: 6.82 MEQ/L | SODIUM [2]: 143.8 MEQ/L | TOTAL BILIRUBIN [2]: 0.2 mg/dL | TOTAL PROTEIN [2]: 5.98 G/DL | URIC ACID [2]: 1.83 mg/dL | ABSOLUTE BASOPHIL [3]: 0 CELLS/uL | ABSOLUTE EOSINOPHIL [3]: 217.33 CELLS/uL | ABSOLUTE LYMPHOCYTE [3]: 12060 CELLS/uL | ABSOLUTE MONOCYTE [3]: 0 CELLS/uL | ABSOLUTE SEGMENTED NEUTROPHIL [3]: 1122.67 CELLS/uL | BASOPHIL [3]: 0% | EOSINOPHIL [3]: 1.67% | ERYTHROCYTE COUNT [3]: 5.52 x10E6/uL | HEMATOCRIT [3]: 34.6% | HEMOGLOBIN [3]: 13.1 G/DL | LEUKOCYTE COUNT [3]: 13.4 x10E3/uL | LYMPHOCYTE [3]: 90% | MEAN CORPUSCULAR HEMOGLOBIN [3]: 23.77 pg | MEAN CORPUSCULAR HEMOGLOBIN CONCENTRATION [3]: 37.9 G/DL | MEAN CORPUSCULAR VOLUME [3]: 62.73 fL | MONOCYTE [3]: 0% | NEUTROPHIL [3]: 8.33% | NUCLEATED RED BLOOD CELLS [3]: 0 /100WBC | PLATELET COUNT [3]: 1155.33 x10E3/uL | ALANINE AMINOTRANSFERASE [3]: 48.67 u/L | ALBUMIN [3]: 4.13 G/DL | ALKALINE PHOSPHATASE [3]: 344.33 u/L | ASPARTATE AMINOTRANSFERASE [3]: 77 u/L | BLOOD UREA NITROGEN [3]: 14.67 mg/dL | CARBON DIOXIDE [3]: 23.67 mmol/L | CHLORIDE [3]: 103.67 MEQ/L | CHOLESTEROL [3]: 71 mg/dL | CREATINE PHOSPHOKINASE [3]: 180 u/L | CREATININE [3]: 0.19 mg/dL | GLUCOSE [3]: 159.67 mg/dL | LACTATE DEHYDROGENASE [3]: 96.67 u/L | LIPASE [3]: 8 u/L | PHOSPHORUS [3]: 12.47 mg/dL | POTASSIUM [3]: 5.88 MEQ/L | SODIUM [3]: 144.63 MEQ/L | TOTAL BILIRUBIN [3]: 0.17 mg/dL | TOTAL PROTEIN [3]: 5.67 G/DL | URIC ACID [3]: 1.47 mg/dL | ABSOLUTE BASOPHIL [4]: 0 CELLS/uL | ABSOLUTE EOSINOPHIL [4]: 278.67 CELLS/uL | ABSOLUTE LYMPHOCYTE [4]: 14764.67 CELLS/uL | ABSOLUTE MONOCYTE [4]: 0 CELLS/uL | ABSOLUTE SEGMENTED NEUTROPHIL [4]: 1590 CELLS/uL | BASOPHIL [4]: 0% | EOSINOPHIL [4]: 1.67% | ERYTHROCYTE COUNT [4]: 5.36 x10E6/uL | HEMATOCRIT [4]: 34.2% | HEMOGLOBIN [4]: 13.03 G/DL | LEUKOCYTE COUNT [4]: 16.63 x10E3/uL | LYMPHOCYTE [4]: 88.67% | MEAN CORPUSCULAR HEMOGLOBIN [4]: 24.4 pg | MEAN CORPUSCULAR HEMOGLOBIN CONCENTRATION [4]: 38.1 G/DL | MEAN CORPUSCULAR VOLUME [4]: 63.97 fL | MONOCYTE [4]: 0% | NEUTROPHIL [4]: 9.67% | NUCLEATED RED BLOOD CELLS [4]: 0.33 /100WBC | PLATELET COUNT [4]: 1260.33 x10E3/uL | ALANINE AMINOTRANSFERASE [4]: 59 u/L | ALBUMIN [4]: 4.5 G/DL | ALKALINE PHOSPHATASE [4]: 404 u/L | ASPARTATE AMINOTRANSFERASE [4]: 84.33 u/L | BLOOD UREA NITROGEN [4]: 18.33 mg/dL | CARBON DIOXIDE [4]: 25.33 mmol/L | CHLORIDE [4]: 103 MEQ/L | CHOLESTEROL [4]: 75.67 mg/dL | CREATINE PHOSPHOKINASE [4]: 221 u/L | CREATININE [4]: 0.18 mg/dL | GLUCOSE [4]: 161.67 mg/dL | LACTATE DEHYDROGENASE [4]: 269 u/L | LIPASE [4]: 9 u/L | PHOSPHORUS [4]: 12.57 mg/dL | POTASSIUM [4]: 6.47 MEQ/L | SODIUM [4]: 145.07 MEQ/L | TOTAL BILIRUBIN [4]: 0.1 mg/dL | TOTAL PROTEIN [4]: 6.03 G/DL | URIC ACID [4]: 1.6 mg/dL
